The values below come from US5597809A, “Treatment of optic neuritis” (priority 1994, dated 1997).

“Also recorded” adds a separate entry of the source. Where two headings read alike, the source gives them in different places. Where only a bound is given, the exact number is not on record here.

Series [1] relates to retinal ganglion cells. Kind of series: Toxicity of other drugs to retinal ganglion cells and prevention by MK801 (FIG. 8). The series is classed as cell-based. On the procedure:
FIG. 8 is a bar graph showing prevention of drug toxicity by the protective agent, MK801. […] Retinal ganglion cells were incubated for 24 hours with either drug alone (5-fluorouracil (5-FU), Defororixamine, and Tamoxifenor drug +MK801, followed by measurement of cell viability.
As discussed above, other drugs are known to cause optic neuropathy (see Table 13). However, the mechanism of drug toxicity has not been defined. Experiments were carried out to determine whether NMDA antagonists prevented retinal cell damage induced by such drugs. […] The cytotoxic effect of these drugs on retinal ganglion cells was prevented by the NMDA antagonist, MK801.

The subject of series [2] is retinal ganglion cells. The series can be described thus: Attenuation of ethambutol toxicity by NMDA antagonists and a calcium channel blocker (retinal ganglion cell viability, FIG. 3). To be noted: for retinal ganglion cell viability, drug alone: no ethambutol; for protection of retinal ganglion cells from ethambutol-mediated toxicity: 24 hours.
Series [3] concerns M. tuberculosis and M. avium isolates. Kind of series: Minimal inhibitory concentration of ethambutol by radiometric Bactec technique with and without protective agents. The series is classed as cell-based, Mycobacterium tuberculosis; Mycobacterium avium.
For series [4], the system named is all other cells of the retinal dissociations. Kind of series: Viability of the other cell types in dissociated retinal preparations exposed to ethambutol. To be noted: increasing concentrations, 24 hours. The series is classed as cell-based, rat. On the procedure: FIG. 1 is a line graph showing dose-dependent toxicity of ethambutol to retinal ganglion cells in vitro. Dissociated rodent retinal ganglion cells were incubated with increasing concentrations of ethambutol for 24 hours. The ability of cells to take up and cleave fluorescein diacetate was used as an index of their viability and lack of injury. […] Retinal ganglion cells (open circles) and all other cells (open squares) were scored separately for viability. […] (*) indicates statistical difference by an analysis of variance (ANOVA) followed by Scheffe multiple comparison of means, P<0.01. Values were normalized to control (n=1) and represent the means ± standard deviations of four experiments; at least 150 retinal ganglion cells scored for control values in each experiment.
Initial experiments were carried out in vitro. Freshly dissociated rat retinal preparations were exposed to increasing concentrations of ethambutol. […] Retinal cells were incubated in the presence of increasing concentrations of ethambutol, and scored for viability at 24 hours. Retinal ganglion cells were identified by the presence of DiI fluorescence.
Viability was assayed by uptake and cleavage of a second fluorescent dye, fluorescein diacetate. Ethambutol toxicity was detected only in retinal ganglion cells (FIG. 1, open circles). […]

For series [5], the system named is retinal ganglion cells. Kind of series: Fura-2 intracellular calcium in retinal ganglion cells (response to NMDA and ethambutol). The series is classed as cell-based, rat. To be noted: for effect on intracellular calcium, ethambutol alone: 10 μM ethambutol; for greater rise in intracellular calcium with ethambutol + NMDA than with NMDA alone: 10 μM ethambutol + 100 μM NMDA. On the procedure:
FIG. 6 is a bar graph showing the effect of ethambutol and Zn^2+ on the cellular response to NMDA. Dissociated retinal ganglion cells were labeled with the calcium sensitive dye, fura-2. 100 μM NMDA were then applied by puffer, and the peak intracellular calcium concentration measured (peak response occurred between 10 and 70 seconds after NMDA exposure for all cells). The indicated drugs were then applied in the following concentrations: 10 μM ethambutol (Eth) or 100 μM Zn^2+. Values are means ± standard deviations. Ethambutol + NMDA led to a 20% greater rise in intracellular calcium then NMDA alone. (*) indicates statistical difference by an analysis of variance (ANOVA) followed Scheffe multiple comparison of means, P<0.01. Ethambutol, NMDA, and Zn^2+ simultaneously led to the same rise seen with NMDA alone. Ethambutol alone or in combination with Zn^2+ had no effect under these conditions.
(§1) Neuronal intracellular free Ca^2+ concentration ([Ca^2+ ]i) was analyzed with fura-2 acetoxymethyl ester (fura 2-AM; Molecular Probes) following procedures known in the art. DiI labeled retinal ganglion cells were subsequently labeled with fura-2. Agonists (NMDA-glycine, glutamate, etc.) were applied by pneumatic pipettes (aperture […], 3-6 psi) placed 10-20 μm from the cells of interest. Data were analyzed via the Metamorph software package (Image 1).
There are several possible explanations for the finding that ethambutol toxicity to retinal ganglion cells is mediated through the NMDA receptor. A primary effect of NMDA is its known ability to increase intracellular calcium in neurons; this effect was monitored via the fluorescent dye, fura 2. Accordingly, dissociated retinal ganglion cells were labeled with fura-2. Ethambutol in concentrations from 1 nM to 1 mM was puffed onto retinal ganglion cells for periods of up to five minutes. No change was detected in 25 of 25 cells examined. As a control, 100 μM NMDA was subsequently puffed onto these cells, and in 23 of 25 cells the intracellular calcium rose to […] or higher.
Since a rise in intracellular calcium is one of the neuron's first responses to exogenously applied glutamate or NMDA, the following experiment was performed to detect changes in intracellular calcium. Dissociated retinal ganglion cells were labeled with the calcium sensitive dye, fura 2. Fura 2 allows for measurement of cytosolic calcium concentrations.
100 μM NMDA was applied to individual retinal ganglion cells, and the rise in intracellular calcium measured. The cells were then allowed to recover, and the intracellular calcium returned to baseline. 10 μM ethambutol and 100 μM NMDA were then simultaneously applied to the same cell (FIG. 6, second bar).
As a second experiment, 100 μM Zn^2+ chloride was added to the ethambutol/NMDA puffer. In the presence of 100 μM Zn^2+, 100 μM NMDA plus 10 μM ethambutol led to a rise in intracellular calcium that was indistinguishable from NMDA alone (FIG. 6, third bar). […] Accordingly, exogenous Zn^2+ reduced the NMDA/ethambutol response to the baseline NMDA response.

The test system of the next series is retinal cultures. The series can be described thus: Endogenous glutamate in retinal cultures by HPLC. The series is classed as cell-based, rat. To be noted: overnight incubation with ethambutol. On the procedure:
The role of endogenous glutamate in ethambutol toxicity was evaluated. Endogenous glutamate in retinal cultures was 26±2 μM (mean ±standard deviation, n=12) (as measured by high pressure liquid chromatography).
This level of endogenous glutamate was not affected by overnight incubation with ethambutol. […] Nevertheless, experiments were carried out to determine whether endogenous glutamate was required for the expression of ethambutol toxicity in these preparations. […] The endogenous glutamate was specifically degraded by the addition of the enzyme glutamate-pyruvate transaminase (GPT) in the presence of the cosubstrate pyruvate.

Series [6] has as its system retinal ganglion cells. To be noted: 10 μM ethambutol, within 24 hours.
The test system of series [7] is retinal ganglion cells. The series can be described thus: cells. To be noted: Rattus norvegicus, 24 h, read-out: half maximal effect of ethambutol toxicity to retinal ganglion cells, 24 hours incubation; viability by fluorescein diacetate.
A further series can be described thus: in vitro. To be noted: rat, retinal ganglion cells.
For series [8] the following is noted: cited from earlier work.
Series [9] relates to retinal ganglion cell layer. The series can be described thus: In vivo toxicity of ethambutol to the retina. To be noted: 100 mg/kg daily, orally, 30 days.
For series [10], the system named is NMDA-evoked [Ca2+]i responses. Kind of series: Digital calcium imaging of NMDA-evoked [Ca2+]i responses. The series is classed as cell-based. To be noted: 6 μM memantine, 200 μM NMDA. On the procedure:
It has now been discovered that memantine inhibits NMDA-evoked [Ca^2+ ]i responses. […] In fact, [Ca^2+ ]i rose only to levels associated with a low degree of NMDA receptor stimulation in the presence of memantine.
as §1

The next series concerns the target NMDA receptor. To be noted: at the resting potential; cited from earlier work.

Turning to `O=c1[nH]cc(F)c(=O)[nH]1` [5-FU, 5-fluorouracil], in the series with retinal ganglion cells [1], the “toxicity to retinal ganglion cells” value is recorded as “toxic to retinal ganglion cells”.

Regarding `NC(CCCP(=O)(O)O)C(=O)O` (stereo not drawn) [APV, 2-amino-5-phosphonovalerate], the “retinal ganglion cell viability, drug alone” value in the series on retinal ganglion cells [2] (100 μM drug) is recorded as “did not affect cell viability”.

`N#Cc1cc2nc(O)c(O)nc2cc1[N+](=O)[O-]` [CNQX, 6-cyano-7-nitroquinoxaline-2,3-dione]: in the series with retinal ganglion cells [2] (100 μM drug with 10 μM ethambutol), the “protection of retinal ganglion cells from ethambutol-mediated toxicity” value (from here on “protection of retinal ganglion cells”) is “ineffective at preventing ethambutol-mediated cell death”. Also, the “retinal ganglion cell viability, drug alone” value in the series on retinal ganglion cells [2] (100 μM drug) is given as “did not affect cell viability”.

`CC(=O)N(O)CCCCCNC(=O)CCC(=O)N(O)CCCCCNC(=O)CCC(=O)N(O)CCCCCN` [Defororixamine, deferoxamine]: the “toxicity to retinal ganglion cells” value in the series with retinal ganglion cells [1] is reported as “toxic to retinal ganglion cells”.

`C[C@]12N[C@H](Cc3ccccc31)c1ccccc12` [MK-801, dizocilpine]: the “effect on the cytotoxic effect of 5-FU, Defororixamine and Tamoxifen on retinal ganglion cells” value in the series on retinal ganglion cells [1] (drug + MK801, 24 hours) is listed as “prevented”. For the same molecule, the “effect on the concentration of ethambutol necessary to kill mycobacterial strains” value (from here on “effect on the concentration”) in series [3] (12 μM agent) was “had no effect”. Further, in the series with retinal ganglion cells [2] (12 μM drug with 10 μM ethambutol), the “protection of retinal ganglion cells” value is listed as “do protect retinal ganglion cells from ethambutol induced injury; also recorded: protect retinal ganglion cells from ethambutol-mediated toxicity”. In the series on retinal ganglion cells [2] (12 μM drug), the “retinal ganglion cell viability, drug alone” value is “did not affect cell viability”.

With `CC/C(=C(\c1ccccc1)c1ccc(OCCN(C)C)cc1)c1ccccc1` [Tamoxifen], the “toxicity to retinal ganglion cells” value in the series with retinal ganglion cells [1] (drug alone, 24 hours) is “toxic to retinal ganglion cells”.

On to `CC[C@@H](CO)NCCN[C@@H](CC)CO` [ethambutol], for which the “ethambutol toxicity in other cell types” value in series [4] is recorded as “No ethambutol toxicity”. The “change in intracellular calcium, ethambutol alone” value in the series with retinal ganglion cells [5] (1 nM to 1 mM puffed for up to five minutes, 25 of 25 cells) is recorded as “No change”. In the series with retinal ganglion cells [5], the “effect on intracellular calcium, ethambutol alone” value was “had no effect on intracellular calcium” and the “greater rise in intracellular calcium with ethambutol + NMDA than with NMDA alone” value is reported as ≥ 20%. For the same molecule, in the series on retinal ganglion cells [5] (listed as Ethambutol), the “greater rise in intracellular calcium with ethambutol + NMDA than with NMDA alone” value came to 20% and the “effect on intracellular calcium, ethambutol alone” value is listed as “had no effect”. The “effect on the level of endogenous glutamate” value in the series on retinal cultures is recorded as “not affected”. In addition, the “retinal ganglion cells that died compared to sibling control cultures” value in the series with retinal ganglion cells [6] is reported as “Approximately half”. Besides, in the series with retinal ganglion cells [7], the EC50 was determined as 10 µM. In addition, the cytotoxicity at 24 h, 10 µM in “in vitro” is ≥ 50%. In series [8] (patients taking ethambutol), the “patients developing optic neuropathy” value is given as “up to 15%” and the “patients with permanent visual loss” value is “up to 3%”. Also, the concentration in series [8] (read-out: concentration in the cerebrospinal fluid, patients taking the drug orally) was 10 µM. Moreover, in series [9], the “loss of cells in the retinal ganglion cell layer versus control” value was 18% and the other ocular pathology entry is reported as “no other ocular pathology was detected”.

On to `CC12CC3CC(C)(C1)CC(N)(C3)C2.Cl` [memantine, 1-amino-3,5-dimethyladamantane hydrochloride], for which the “effect on excessive influx of calcium elicited by NMDA” value in series [10] is given as “largely prevent”. The “effect on the concentration” value in [3] (12 μM agent) is reported as “had no effect”. Also, at NMDA receptor, the inhibition constant (Ki) is 1 to 2 µM. In addition, the “protection of retinal ganglion cells” value in the series on retinal ganglion cells [2] (12 μM drug with 10 μM ethambutol, hydrochloride) is “do protect retinal ganglion cells from ethambutol induced injury; also recorded: protect retinal ganglion cells from ethambutol-mediated toxicity”. Besides, the “retinal ganglion cell viability, drug alone” value in the series on retinal ganglion cells [2] (12 μM drug) is recorded as “did not affect cell viability”.

For `COCCOC(=O)C1=C(C)NC(C)=C(C(=O)OC(C)C)C1c1cccc([N+](=O)[O-])c1` (stereo not drawn) [nimodipine], the “effect on the concentration” value in series [3] (100 nM agent) is listed as “had no effect”. Also, the “protection of retinal ganglion cells” value in the series on retinal ganglion cells [2] (100 nM drug with 10 μM ethambutol) is listed as “do protect retinal ganglion cells from ethambutol induced injury; also recorded: protect retinal ganglion cells from ethambutol-mediated toxicity”. Moreover, the “retinal ganglion cell viability, drug alone” value in the series with retinal ganglion cells [2] (100 nM drug) was “did not affect cell viability”.
